Results: patent publication US20080070860A1, “Adenosine Analogs Useful as Anti-Bacterial and Anti Protozoan Agents” (UTI LIMITED PARTNERSHIP, priority 2005, published 2008)

Biological target: T1, adenosine phosphorylase (Escherichia coli, UniProt P0ABP8)
T1 construct: assayed using the cell free lysate of E. coli as enzyme source; endogenous in cells; host or cells: Escherichia coli DH5alpha (cell-free lysate, 10,000 x g supernatant)
Test: Adenosine phosphorylase assay (cleavage of nucleoside analog to base, E. coli cell free lysate, HPLC)
Format: biochemical, Escherichia coli DH5alpha
Details: 100 μM nucleoside analog, 20 min, 50 mM phosphate pH 7.4
Procedure: Escherichia coli DH5alpha cells were used as the source of adenosine phosphorylase to test the compounds of the present invention. E. coli DH5 alpha cells were harvested in log phase and collected by centrifugation. Cells were lysed by sonication, centrifuged at 10,000×g for 30 min and the supernatant was recovered for assay or storage at −60° C.
Adenosine phosphorylase activity was assayed using the cell free lysate of E. coli as enzyme source for catalysis of the cleavage of nucleoside analogs to their corresponding base analogs in the presence of 50 mM phosphate at pH 7.4. Reaction products were subjected to separation by reverse phase high performance liquid chromatography (HPLC) equipped with continuous scanning diode array detector as described below. Substrates and products were identified by retention time and UV spectra of their peaks.
Samples for HPLC were prepared post reaction by deproteination with 10% v/v of 50% TCA. Following centrifugation at 10,000 g for 5 min the supernatant was recovered for neutralization. A minimal amount of bromophenol blue was added and the sample was titrated with alamine-freon. Following a further centrifugation at 10,000 g for 5 min, the neutralized sample may be stored at −60° C.
Nucleosides and bases in a 10 μl sample were separated on an HPLC equipped with a scanning UV detector from 220 to 320 nm at 5 nm intervals, utilizing a reverse phase Waters Symmetry C18, 4.6×150 mm, 5 um column in tandem with a Waters guard column.
Compounds were identified by retention time and UV spectra at peak height as collected during separation.
The relative rate of conversion of 100 μM nucleoside analog to the corresponding base in 20 min (measured as the % of analog converted) was determined for the following compounds: 5′-deoxyadenosine, 41%; 2-chloroadenosine, 31%; 2-chloro-5′-deoxyadenosine, 8%; 2-fluoro-5′-deoxyadenosine, >80%; 6-thiopurine-5′-deoxyriboside, 61%; 2-amino-5′-deoxyadenosine, 7%.

T1 sequence (P0ABP8 2-239): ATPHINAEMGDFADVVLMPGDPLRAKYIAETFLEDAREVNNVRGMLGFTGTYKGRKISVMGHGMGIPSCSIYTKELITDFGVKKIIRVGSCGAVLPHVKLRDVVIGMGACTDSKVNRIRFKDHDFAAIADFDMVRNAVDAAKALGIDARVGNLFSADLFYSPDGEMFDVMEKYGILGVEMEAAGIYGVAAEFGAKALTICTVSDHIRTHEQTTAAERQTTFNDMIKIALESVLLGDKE

SMILES | relative rate of conversion of nucleoside analog to the corresponding base (% of analog converted)
Nc1nc(Cl)nc2c1ncn2[C@@H]1O[C@H](CO)[C@@H](O)[C@H]1O [2-chloroadenosine, reference compound] | 31%
C[C@H]1O[C@@H](n2cnc3c(N)nc(Cl)nc32)[C@H](O)[C@@H]1O [2-chloro-5′-deoxyadenosine] | 8%
C[C@H]1O[C@@H](n2cnc3c(N)nc(F)nc32)[C@H](O)[C@@H]1O [2-fluoro-5′-deoxyadenosine] | > 80%
C[C@H]1O[C@@H](n2cnc3c(S)ncnc32)[C@H](O)[C@@H]1O [6-thiopurine-5′-deoxyriboside, 6-mercaptopurine-5′-deoxy-β-D-riboside] | 61%
C[C@H]1O[C@@H](n2cnc3c(N)nc(N)nc32)[C@H](O)[C@@H]1O [2-amino-5′-deoxyadenosine] | 7%
C[C@H]1O[C@@H](n2cnc3c(N)ncnc32)[C@H](O)[C@@H]1O [5′-deoxyadenosine] | 41%

Test system: not given
Test: not given
Details: not given

SMILES | melting point
COC[C@H]1O[C@@H](n2cnc3c(N)nc(Cl)nc32)[C@H](O)[C@@H]1O | 92 to 94 °C
C[C@H]1O[C@@H](n2cnc3c(N)nc(F)nc32)[C@H](O)[C@@H]1O [2-fluoro-5′-deoxyadenosine] | 244 to 245 °C
C[C@H]1O[C@@H](n2cnc3c(N)nc(N)nc32)[C@H](O)[C@@H]1O [2-amino-5′-deoxyadenosine] | 135 to 138 °C
COC[C@H]1O[C@@H](n2cnc3c(N)nc(F)nc32)[C@H](O)[C@@H]1O | 231 to 233 °C

Biological target: adenosine kinase (Homo sapiens, UniProt P55263)
Sequence (P55263 whole entry, species assumed): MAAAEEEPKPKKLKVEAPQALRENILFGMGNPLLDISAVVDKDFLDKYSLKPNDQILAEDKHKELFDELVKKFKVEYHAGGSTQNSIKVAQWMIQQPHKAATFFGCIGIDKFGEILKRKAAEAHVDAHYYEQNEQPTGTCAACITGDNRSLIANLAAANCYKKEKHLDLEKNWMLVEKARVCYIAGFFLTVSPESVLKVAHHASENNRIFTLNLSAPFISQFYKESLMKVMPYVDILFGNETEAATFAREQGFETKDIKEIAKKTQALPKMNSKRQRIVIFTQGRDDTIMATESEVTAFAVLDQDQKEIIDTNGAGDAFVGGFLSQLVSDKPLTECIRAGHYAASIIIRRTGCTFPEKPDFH
Test: not given
Details: Kowaluk et al. 1998; cited from earlier work

SMILES | inhibition of adenosine kinase
NC[C@H]1O[C@@H](n2cnc3c(N)ncnc32)[C@H](O)[C@@H]1O [5′-deoxy-5′-amino-adenosine] | potent inhibitor

Biological target: T2, adenosine deaminase (Homo sapiens, UniProt P00813)
T2 sequence (P00813 1-363): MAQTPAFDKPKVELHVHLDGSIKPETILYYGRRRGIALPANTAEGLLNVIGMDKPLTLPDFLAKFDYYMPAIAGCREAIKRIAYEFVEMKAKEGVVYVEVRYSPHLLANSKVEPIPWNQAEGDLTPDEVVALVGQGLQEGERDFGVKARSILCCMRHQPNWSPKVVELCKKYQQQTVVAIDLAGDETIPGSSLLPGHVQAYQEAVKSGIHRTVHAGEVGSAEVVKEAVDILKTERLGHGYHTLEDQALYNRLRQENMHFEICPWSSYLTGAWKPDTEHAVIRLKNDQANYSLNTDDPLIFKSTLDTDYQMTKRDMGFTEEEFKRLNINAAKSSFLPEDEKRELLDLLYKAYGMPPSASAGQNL
Test: not given
Details: cited from earlier work

SMILES | susceptibility to adenosine deaminase
Cc1ncnc2nc[nH]c12 [6-methylpurine] | quite refractory
